Source: US9546164B2 (GENENTECH, INC., priority 2013, dated 2017)
pIC50: −log10 of the molar value. Where a name gives a salt, the structure may show the parent alone.

target: hNav1.7 (Homo sapiens (Human), UniProt Q15858); assay: Tritiated sulfonamide competitive binding to membranes from cells expressing hNav1.7 and the β1 subunit; conditions: not given;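 further: Filter-bound radioactivity counted by liquid scintillation, nonspecific binding defined with excess unlabelled ligand, IC50 fitted to percent inhibition of specific binding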
Sequence (Q15858 other isoform, or with tags, fused parts or gaps): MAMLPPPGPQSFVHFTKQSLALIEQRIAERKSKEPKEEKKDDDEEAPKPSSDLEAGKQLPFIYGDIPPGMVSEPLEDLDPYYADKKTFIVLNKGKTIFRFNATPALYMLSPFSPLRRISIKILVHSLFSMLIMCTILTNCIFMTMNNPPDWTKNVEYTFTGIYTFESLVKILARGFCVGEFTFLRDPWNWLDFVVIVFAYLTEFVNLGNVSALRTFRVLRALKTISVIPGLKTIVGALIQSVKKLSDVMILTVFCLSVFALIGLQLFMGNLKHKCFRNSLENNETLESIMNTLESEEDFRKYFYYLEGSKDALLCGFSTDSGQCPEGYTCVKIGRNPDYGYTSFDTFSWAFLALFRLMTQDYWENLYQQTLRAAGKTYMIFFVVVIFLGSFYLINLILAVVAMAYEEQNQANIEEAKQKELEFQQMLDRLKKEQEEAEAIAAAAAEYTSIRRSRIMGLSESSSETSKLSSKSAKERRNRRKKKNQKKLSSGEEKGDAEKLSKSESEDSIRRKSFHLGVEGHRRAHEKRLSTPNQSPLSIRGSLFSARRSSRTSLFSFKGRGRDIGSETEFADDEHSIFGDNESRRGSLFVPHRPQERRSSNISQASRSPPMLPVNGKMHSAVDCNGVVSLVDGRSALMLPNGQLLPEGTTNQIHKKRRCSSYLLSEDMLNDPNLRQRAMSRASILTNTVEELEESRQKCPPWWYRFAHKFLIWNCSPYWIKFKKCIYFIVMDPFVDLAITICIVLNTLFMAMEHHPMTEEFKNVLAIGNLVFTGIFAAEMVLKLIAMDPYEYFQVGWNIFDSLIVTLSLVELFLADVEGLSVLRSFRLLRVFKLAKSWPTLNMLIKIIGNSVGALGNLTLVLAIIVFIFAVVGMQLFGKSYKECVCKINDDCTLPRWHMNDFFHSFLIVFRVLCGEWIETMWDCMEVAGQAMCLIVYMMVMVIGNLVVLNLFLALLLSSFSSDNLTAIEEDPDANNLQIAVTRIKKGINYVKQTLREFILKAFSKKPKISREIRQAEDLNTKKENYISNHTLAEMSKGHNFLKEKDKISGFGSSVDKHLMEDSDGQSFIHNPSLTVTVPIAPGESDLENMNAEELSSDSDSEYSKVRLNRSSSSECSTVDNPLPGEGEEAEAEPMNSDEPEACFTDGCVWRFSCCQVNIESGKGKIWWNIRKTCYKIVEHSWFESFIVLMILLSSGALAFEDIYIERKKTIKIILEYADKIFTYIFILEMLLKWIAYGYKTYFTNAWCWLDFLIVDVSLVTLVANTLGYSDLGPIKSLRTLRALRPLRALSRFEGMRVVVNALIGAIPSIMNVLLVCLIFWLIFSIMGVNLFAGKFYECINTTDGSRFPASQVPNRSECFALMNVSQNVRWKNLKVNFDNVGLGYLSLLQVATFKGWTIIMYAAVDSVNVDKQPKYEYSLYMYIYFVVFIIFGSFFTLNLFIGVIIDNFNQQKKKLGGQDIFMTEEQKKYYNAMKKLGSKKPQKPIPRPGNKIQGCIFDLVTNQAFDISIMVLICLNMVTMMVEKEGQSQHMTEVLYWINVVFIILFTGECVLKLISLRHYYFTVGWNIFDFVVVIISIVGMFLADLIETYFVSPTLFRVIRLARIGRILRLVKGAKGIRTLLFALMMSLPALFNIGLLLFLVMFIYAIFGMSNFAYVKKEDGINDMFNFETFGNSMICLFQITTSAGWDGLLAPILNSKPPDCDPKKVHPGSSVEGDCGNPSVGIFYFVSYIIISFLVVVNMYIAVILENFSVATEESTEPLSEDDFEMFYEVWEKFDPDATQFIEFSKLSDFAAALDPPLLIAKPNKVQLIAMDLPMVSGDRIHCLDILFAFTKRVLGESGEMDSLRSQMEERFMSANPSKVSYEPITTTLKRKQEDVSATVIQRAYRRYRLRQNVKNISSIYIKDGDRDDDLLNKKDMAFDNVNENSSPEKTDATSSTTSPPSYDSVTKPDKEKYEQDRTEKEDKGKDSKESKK
Sequence (Q07699 19-218 partner): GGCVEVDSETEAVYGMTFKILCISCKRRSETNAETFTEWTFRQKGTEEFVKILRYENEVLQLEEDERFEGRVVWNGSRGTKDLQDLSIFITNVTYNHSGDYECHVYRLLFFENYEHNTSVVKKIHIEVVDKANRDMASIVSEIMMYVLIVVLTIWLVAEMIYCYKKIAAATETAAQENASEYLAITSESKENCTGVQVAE

Row | SMILES | pIC50
1 | O=C(NS(=O)(=O)N1CCC1)c1cc(C2CC2)c(O[C@@H]2CCCN(Cc3cccc(Cl)c3)C2)cc1F [Example 28, (R)—N-(azetidin-1-ylsulfonyl)-4-((1-(3-chlorobenzyl)piperidin-3-yl)oxy)-5-cyclopropyl-2-fluorobenzamide] | 8.13
2 | O=C(NS(=O)(=O)C1CC1)c1cc(C2CC2)c(O[C@@H]2CCCN(C(c3ccccc3)c3ccccc3)C2)cc1F [Example 16, (R)-4-((1-benzhydrylpiperidin-3-yl)oxy)-5-cyclopropyl-N-(cyclopropylsulfonyl)-2-fluorobenzamide] | 8.47
3 | CS(=O)(=O)NC(=O)c1cc(C2CC2)c(CN2CC(Oc3cc(Cl)cc(Cl)c3)C2)cc1F [Example 544, 5-cyclopropyl-4-((3-(3,5-dichlorophenoxy)azetidin-1-yl)methyl)-2-fluoro-N-(methylsulfonyl)benzamide, trifluoroacetic acid salt] | 7.82
4 | O=C(NS(=O)(=O)N1CCC1)c1cc(C2CC2)c(O[C@@H]2CCCN(Cc3cc(Cl)cc(Cl)c3)C2)cc1F [Example 5, (R)—N-(azetidin-1-ylsulfonyl)-5-cyclopropyl-4-((1-(3,5-dichlorobenzyl)piperidin-3-yl)oxy)-2-fluoroenzamide] | 8.15
5 | O=C(NS(=O)(=O)C1CC1)c1cc(C2CC2)c(O[C@@H]2CCCN(c3cc(Cl)cc(Cl)c3)C2)cc1F [Example 42, (R)-5-cyclopropyl-N-(cyclopropylsulfonyl)-4-((1-(3,5-dichlorophenyl)piperidin-3-yl)oxy)-2-fluorobenzamide] | 8.68

same assay, conditions: read-out: Ligand Binding Assay; 100 pM [3H]compound, membranes with hNav1.7 and β1 subunit, 18 h, room temperature

Row | SMILES | pIC50
6 | CS(=O)(=O)NC(=O)c1cc(C2CC2)c(OCC2CCN(Cc3ccc(C4CC4)cc3Cl)CC2)cc1F [Example 415, 4-((1-(2-chloro-4-cyclopropylbenzyl)piperidin-4-yl)methoxy)-5-cyclopropyl-2-fluoro-N-(methylsulfonyl)benzamide, trifluoroacetic acid salt] | 8.21
7 | CC1(COc2cc(F)c(C(=O)NS(=O)(=O)C3CC3)cc2C2CC2)CN(C(c2ccccc2)c2ccccc2)C1 [Example 70, 4-((1-benzhydryl-3-methylazetidin-3-yl)methoxy)-5-cyclopropyl-N-(cyclopropylsulfonyl)-2-fluorobenzamide] | 8.22
8 | C[C@H](c1cc(Cl)cc(Cl)c1)N1CCC(C)(COc2cc(F)c(C(=O)NS(C)(=O)=O)cc2C2CC2)CC1 (single isomer, unassigned) [Example 212] | 8.57
9 | CS(=O)(=O)NC(=O)c1cc(C2CC2)c(OCC2CN(S(=O)(=O)c3ccccc3)C2)cc1F [Example 129, 5-Cyclopropyl-2-fluoro-N-(methylsulfonyl)-4-((1-(phenylsulfonyl)-azetidin-3-yl)methoxy)benzamide] | 5.86
10 | O=C(NS(=O)(=O)C1CC1)c1cc(C2CC2)c(O[C@@H]2CCCN(c3ccccn3)C2)cc1F [Example 492, (R)-5-cyclopropyl-N-(cyclopropylsulfonyl)-2-fluoro-4-((1-(pyridin-2-yl)piperidin-3-yl)oxy)benzamide] | 7.03
11 | CS(=O)(=O)NC(=O)c1cc(C2CC2)c(OCC2CN([C@@H](c3ccccc3)c3cccnc3)C2)cc1F [Example 82] | 6.39
12 | CS(=O)(=O)NC(=O)c1cc(C2CC2)c(O[C@@H]2CCCN(CC3(C(F)(F)F)CCCC3)C2)cc1F [Example 327, (R)-5-cyclopropyl-2-fluoro-N-(methylsulfonyl)-4-((1-((1-(trifluoromethyl)cyclopentyl)methyl)piperidin-3-yl)oxy)benzamide] | 8.57
13 | CS(=O)(=O)NC(=O)c1cc(C2CC2)c(OC[C@@H]2CCN(Cc3cc(Cl)cc(Cl)c3)C(=O)C2)cc1F (single isomer, unassigned) [Example 234] | 6.77
14 | CC1(COc2cc(F)c(C(=O)NS(=O)(=O)C3CC3)cc2C2CC2)CN(c2ncc(C(F)(F)F)cc2Cl)C1 [Example 481, 4-((1-(3-chloro-5-(trifluoromethyl)pyridin-2-yl)-3-methylazetidin-3-yl)methoxy)-5-cyclopropyl-N-(cyclopropylsulfonyl)-2-fluorobenzamide] | 8.51
15 | CS(=O)(=O)NC(=O)c1cc(C2CC2)c(O[C@@H]2CCCN(Cc3cc(Cl)cc(Cl)c3)C2)cc1F [Example 440] | 9.52
16 | COC[C@@H](c1ccccc1)N1CCC(COc2cc(F)c(C(=O)NS(C)(=O)=O)cc2C2CC2)CC1 [Example 222, (R)-5-cyclopropyl-2-fluoro-4-((1-(2-methoxy-1-phenylethyl)piperidin-4-yl)methoxy)-N-(methylsulfonyl)benzamide] | 6.80
17 | COC[C@H](c1cc(Cl)cc(Cl)c1)N1CCC(C)(COc2cc(F)c(C(=O)NS(C)(=O)=O)cc2C2CC2)CC1 (single isomer, unassigned) [Example 173] | 8.41
18 | O=C(NS(=O)(=O)C1CC1)c1cc(C2CC2)c(O[C@@H]2CCCN(c3ccc(F)cn3)C2)cc1F [Example 494, (R)-5-cyclopropyl-N-(cyclopropylsulfonyl)-2-fluoro-4-((1-(5-fluoropyridin-2-yl)piperidin-3-yl)oxy)benzamide, trifluoroacetic acid salt] | 7.28
19 | CS(=O)(=O)NC(=O)c1cc(C2CC2)c(OCC2CCN(C(c3ccccc3Cl)c3ccccc3Cl)CC2)cc1F [Example 361, 4-((1-(bis(2-chlorophenyl)methyl)piperidin-4-yl)methoxy)-5-cyclopropyl-2-fluoro-N-(methylsulfonyl)benzamide, trifluoroacetic acid salt] | 8.70
20 | CS(=O)(=O)NC(=O)c1cc(C2CC2)c(OCC2CN([C@@H](c3ccccc3)c3ccc(F)cc3)C2)cc1F [Example 144, (S)-5-Cyclopropyl-2-fluoro-4-((1-((4-fluorophenyl)(phenyl)methyl)azetidin-3-yl)methoxy)-N-(methylsulfonyl)benzamide] | 8.04
21 | CC1(COc2cc(F)c(C(=O)NS(C)(=O)=O)cc2C2CC2)CN(Cc2cc(C(F)(F)F)cc(Cl)c2F)C1 [Example 593, 4-((1-(3-chloro-2-fluoro-5-(trifluoromethyl)benzyl)-3-methylazetidin-3-yl)methoxy)-5-cyclopropyl-2-fluoro-N-(methylsulfonyl)benzamide] | 8.00
22 | CS(=O)(=O)NC(=O)c1cc(C2CC2)c(OCC2CCN(Cc3ccc(F)cc3)CC2)cc1F [Example 161, 5-Cyclopropyl-2-fluoro-4-((1-(4-fluorobenzyl)piperidin-4-yl)methoxy)-N-(methylsulfonyl)benzamide] | 6.55
23 | CC1(COc2cc(F)c(C(=O)NS(C)(=O)=O)cc2C2CC2)CCN(c2cc(C(F)(F)F)c(Cl)cn2)CC1 [Example 556, 4-((1-(5-chloro-4-(trifluoromethyl)pyridin-2-yl)-4-methylpiperidin-4-yl)methoxy)-5-cyclopropyl-2-fluoro-N-(methylsulfonyl)benzamide] | 8.68
24 | O=C(NS(=O)(=O)C1CC1)c1cc(C2CC2)c(OCC2CCN(Cc3ncccc3C(F)(F)F)CC2)cc1F [Example 364, 5-cyclopropyl-N-(cyclopropylsulfonyl)-2-fluoro-4-((1-((3-(trifluoromethyl)pyridin-2-yl)methyl)piperidin-4-yl)methoxy)benzamide, trifluoroacetic acid salt] | 7.09
25 | C[C@H](c1ccc(F)cc1Cl)N1CCC(COc2cc(F)c(C(=O)NS(C)(=O)=O)cc2C2CC2)CC1 [Example 244] | 7.92
26 | CC(c1cc(F)cc(F)c1)N1CC(COc2cc(F)c(C(=O)NS(C)(=O)=O)cc2C2CC2)C1 (centres unmarked) [Example 86, 5-Cyclopropyl-4-((1-(1-(3,5-difluorophenyl)ethyl)azetidin-3-yl)methoxy)-2-fluoro-N-(methylsulfonyl)benzamide] | 7.31
27 | O=C(NS(=O)(=O)C1CC1)c1cc(C2CC2)c(OCC2CCN(C(=O)c3ccccc3)CC2)cc1F [Example 198, 4-((1-Benzoylpiperidin-4-yl)methoxy)-5-cyclopropyl-N-(cyclopropylsulfonyl)-2-fluorobenzamide] | 6.26
28 | CS(=O)(=O)NC(=O)c1cc(C2CC2)c(OCC2CCN(Cc3ccccc3C#N)CC2)cc1F [Example 149, 4-((1-(2-Cyanobenzyl)piperidin-4-yl)methoxy)-5-cyclopropyl-2-fluoro-N-(methylsulfonyl)benzamide] | 7.13
29 | CS(=O)(=O)NC(=O)c1cc(C2CC2)c(OCC2CCN(Cc3ccc(C(F)(F)F)cc3)CC2)cc1F [Example 126] | 6.55
30 | CS(=O)(=O)NC(=O)c1cc(C2CC2)c(OCC2CCN([C@@H](CO)c3cc(Cl)cc(Cl)c3)CC2)cc1F [Example 266] | 7.04
31 | COc1ccc(CN2CCC[C@@H](Oc3cc(F)c(C(=O)NS(C)(=O)=O)cc3C3CC3)C2)cc1OC [Example 430, (R)-5-cyclopropyl-4-((1-(3,4-dimethoxybenzyl)piperidin-3-yl)oxy)-2-fluoro-N-(methylsulfonyl)benzamide, trifluoroacetic acid salt] | 6.27
32 | CS(=O)(=O)NC(=O)c1cc(C2CC2)c(OCC2CCN(c3ccccc3Cl)CC2)cc1F [Example 293, 4-((1-(2-Chlorophenyl)piperidin-4-yl)methoxy)-5-cyclopropyl-2-fluoro-N-(methylsulfonyl)benzamide] | 8.28
33 | CS(=O)(=O)NC(=O)c1cc(C2CC2)c(OCC2CN([C@H](c3ccccc3)c3ccc(S(C)(=O)=O)cc3)C2)cc1F [Example 96, (R)-5-Cyclopropyl-2-fluoro-N-(methylsulfonyl)-4-((1-((4-(methylsulfonyl)phenyl)(phenyl)methyl)azetidin-3-yl)methoxy)benzamide] | 6.37
34 | CC1(COc2cc(F)c(C(=O)NS(=O)(=O)C3CC3)cc2C2CC2)CN(c2ccncc2C(F)(F)F)C1 [Example 489, 5-cyclopropyl-N-(cyclopropylsulfonyl)-2-fluoro-4-((3-methyl-1-(3-(trifluoromethyl)pyridin-4-yl)azetidin-3-yl)methoxy)benzamide, trifluoroacetic acid salt] | 6.99
35 | CS(=O)(=O)NC(=O)c1cc(Cl)c(OCC2CCN(Cc3cc(Cl)cc(OC(F)(F)F)c3)CC2)cc1F [Example 406, 5-chloro-4-((1-(3-chloro-5-(trifluoromethoxy)benzyl)piperidin-4-yl)methoxy)-2-fluoro-N-(methylsulfonyl)benzamide, trifluoroacetic acid salt] | 7.75
